Where two headings read alike, the source gives them in different places.
Legend:
MDA-MB-453 cells = assay: Cell proliferation, MDA-MB-453 (CellTiter Glo); type: cell-based; settings: Homo sapiens; MDA-MB-453; 96 hr; read-out: Cell Proliferation GI50 (nM) MDA
Description: For both MDA-MB-453 and Huh7 cells the starting density was 5000 cells per well. The cells were allowed to settle down for 4 hr and were then treated with 5, 1.25, 0.31, 0.078, 0.020 or 0.005 μM of test compound for: 96 hr for MDA-MB-453 and 120 hr for Huh7 cells. Cell viability was determined by CellTiter Glo (Promega, Madison, Wis.) and the results were converted to cell numbers using a standard curve. The growth inhibition (GI50) values were determined by Graph Pad Prism.
The results of these experiments show the ability of compounds to inhibit cell growth in FGFR dependant cell lines and are depicted in Table 8, in the columns titled “Cell Proliferation GI50 (nM)”. MDA-MB-453 cell results fall under the heading “MDA” and Huh7 cell results fall under the heading “Huh.”

Huh7 cells = assay: Cell proliferation, Huh7 (CellTiter Glo); type: cell-based; settings: Homo sapiens, Huh-7; Huh7; 120 hr; read-out: Cell Proliferation GI50 (nM) HUH
Description: The growth inhibition (GI50) values were determined by Graph Pad Prism.

FGFR4-WT = FGFR4-WT (Homo sapiens (Human), UniProt P22455); assay: Omnia assay for potency assessment against FGFR4 enzyme; type: biochemical; settings: read-out: FGFR4 IC50
FGFR4-WT, sequence (P22455 22-802): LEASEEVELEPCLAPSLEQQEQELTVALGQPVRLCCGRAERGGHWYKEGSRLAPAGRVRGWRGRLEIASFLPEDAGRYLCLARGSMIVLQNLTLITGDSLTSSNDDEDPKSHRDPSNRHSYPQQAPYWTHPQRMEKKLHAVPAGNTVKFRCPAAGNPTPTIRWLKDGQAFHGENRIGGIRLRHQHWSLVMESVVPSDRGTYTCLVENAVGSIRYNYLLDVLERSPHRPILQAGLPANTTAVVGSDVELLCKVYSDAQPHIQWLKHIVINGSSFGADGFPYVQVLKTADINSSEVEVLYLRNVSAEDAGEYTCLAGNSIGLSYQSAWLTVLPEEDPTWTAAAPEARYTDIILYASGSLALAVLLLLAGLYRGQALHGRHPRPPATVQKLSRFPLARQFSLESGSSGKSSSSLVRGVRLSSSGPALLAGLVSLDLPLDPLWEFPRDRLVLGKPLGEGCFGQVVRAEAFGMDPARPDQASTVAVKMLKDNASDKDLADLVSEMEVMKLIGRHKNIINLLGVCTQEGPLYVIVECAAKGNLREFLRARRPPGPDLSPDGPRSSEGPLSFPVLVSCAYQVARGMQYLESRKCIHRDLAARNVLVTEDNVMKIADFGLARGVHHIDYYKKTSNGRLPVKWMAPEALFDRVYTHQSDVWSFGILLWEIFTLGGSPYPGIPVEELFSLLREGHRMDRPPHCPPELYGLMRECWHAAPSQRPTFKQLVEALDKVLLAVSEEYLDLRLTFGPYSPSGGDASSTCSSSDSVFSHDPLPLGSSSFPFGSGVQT
Description: A 10× stock solution of FGFR4-WT (PR4380C), (from Invitrogen, Carlsbad, Calif.) corresponding to method a in Table 7, was prepared as described below. Alternatively, a 10× stock solution of FGFR4-WT (F01-11G), (SignalChem, Richmond, BC) corresponding to method b in Table 7, was prepared as described below. A solution of 1.4×ATP (AS001A) and 5×Tyr-Sox conjugated peptide substrate (KNZ3101) were prepared in IX kinase reaction buffer consisting of 20 mM Tris, pH 7.5, 5 mM MgCl2, 1 mM EGTA, 5 mM β-glycerophosphate, 5% glycerol (10× stock, KB002A) and 0.2 mM DTT (DS001A). […] The serially diluted compounds were prepared on a Tecan EVO100. A second addition of 10 μl of Tyr-Sox FGFR4 substrate was added to each well and the kinase reactions were started with the addition of 35 μL of 1.4×ATP. The reactions were monitored every 71 seconds for 240 minutes at λex360/λem485 in a Synergy plate reader from BioTek (Winooski, Vt.).

[1] = biological target: FGFR4 in MDA-MB-453 cells (Homo sapiens (Human), UniProt P22455, Y367C); assay: Target occupancy assay with biotinylated covalent probe I-127; type: cell-based; settings: MDA-MB-453 lysate; 2 μM biotinylated probe I-127
FGFR4 in MDA-MB-453 cells, sequence (P22455 22-802 Y367C): as the sequence (P22455 22-802) above, with Y346C counted along it
Description: In order to assess free FGFR4 protein a biotinylated covalent probe was utilized. […] The reaction was incubated for 2 hr at room temperature. The samples and probe mixture were transferred to a FGFR4-coated MSD plate for 2 hr at room temperature. MSD signals were obtained with an anti-streptavidin Sulfo-tag (Meso Scale) antibody for 1 hr at room temperature.
If a compound completely (100%) covalently modies FGFR4 no free FGFR4 should be available for covalent modification by the biotinylated probe and subsequent binding to streptavidin and detection.

[2] = method a: Invitrogen FGFR4-WT 10 nM, ATP 300 uM, Y10-Sox 10 uM

SMILES | GI50 (MDA-MB-453 cells) [nM] | GI50 (Huh7 cells) [nM] | also measured
C=CC(=O)N[C@H]1CCCC[C@H]1Nc1ncc2c(n1)N(C)C(=O)N(c1c(Cl)c(OC)cc(OC)c1Cl)C2 [I-95] | 101 to 500 | 501 to 999 | –
C=CC(=O)Nc1ccccc1Nc1ncc2c(n1)N(Cc1cccc(C(N)=O)c1)C(=O)N(c1cc(OC)cc(OC)c1)C2 [I-97] | 101 to 500 | > 1000 | –
C=CC(=O)Nc1ccccc1Nc1ncc2c(n1)N(CC1CC1)C(=O)N(c1cc(OC)cc(OC)c1)C2 [I-98] | 101 to 500 | > 1000 | –
C=CC(=O)Nc1ccccc1Nc1ncc2c(n1)N(CC(F)F)C(=O)N(c1cc(OC)cc(OC)c1)C2 [I-99] | 101 to 500 | > 1000 | –
CCC(=O)N[C@H]1CCCC[C@H]1Nc1ncc2c(n1)N(Cc1cscn1)C(=O)N(c1c(Cl)c(OC)cc(OC)c1Cl)C2 [I-118] | – | – | IC50 (FGFR4-WT; [2]): > 1000 nM
C=CC(=O)N[C@@H]1CCCC[C@@H]1Nc1ncc2c(n1)N(Cc1cscn1)C(=O)N(c1c(Cl)c(OC)cc(OC)c1Cl)C2 [I-119] | – | – | IC50 (FGFR4-WT): > 1000 nM
C=CC(=O)Nc1ccccc1Nc1ncc2nc(-c3cc(OC)cc(OC)c3)c(=O)n(C)c2n1 [I-128] | – | – | IC50 (FGFR4-WT; [2]): 101 to 500 nM
C=CC(=O)Nc1ccccc1Nc1ncc2c(n1)N(C)C(=O)N(c1c(F)c(OC)cc(OC)c1F)C2 [I-131] | < 100 | 101 to 500 | –
C=CC(=O)NC1CCCCC1Nc1ncc2c(n1)N(Cc1ccnc(N)c1)C(=O)N(c1c(Cl)c(OC)cc(OC)c1Cl)C2 (stereo not drawn) [I-133] | < 100 | 101 to 500 | –
C=CC(=O)N[C@H]1CCCC[C@H]1Nc1ncc2c(n1)N(Cc1cnn(C)c1)C(=O)N(c1c(Cl)c(OC)cc(OC)c1Cl)C2 [I-148] | – | – | IC50 (FGFR4-WT; [2]): < 100 nM
C=CC(=O)Nc1ccccc1Nc1ncc2c(n1)N(Cc1cnn(C)c1)C(=O)N(c1c(Cl)c(OC)cc(OC)c1Cl)C2 [I-149] | – | < 100 | IC50 (FGFR4-WT; [2]): < 100 nM
C=CC(=O)Nc1ccccc1Nc1ncc2cc(-c3cc(OC)cc(OC)c3)c(N)nc2n1 [I-155] | – | – | IC50 (FGFR4-WT; [2]): < 100 nM
C=CC(=O)NC1COCC1Nc1ncc2c(n1)N(Cc1cn[nH]c1)C(=O)N(c1c(Cl)c(OC)cc(OC)c1Cl)C2 (stereo not drawn) [I-214] | – | 101 to 500 | IC50 (FGFR4-WT): < 100 nM
C=CC(=O)N[C@H]1CCCC[C@H]1Nc1ncc2c(n1)N(C)C(=O)N(c1c(Cl)c(OC)c(OC)c(OC)c1Cl)C2 [I-221] | – | – | IC50 (FGFR4-WT; [2]): > 1000 nM
CCC(=O)Nc1ccccc1Nc1ncc2c(n1)N(Cc1ccccc1)C(=O)N(c1c(Cl)c(OC)cc(OC)c1Cl)C2 [I-236] | – | – | EC50 [1]: > 1000 nM

Further lines, with some results ahead:

GI50 (MDA-MB-453 cells) [nM] | GI50 (Huh7 cells) [nM] | SMILES | also measured
101 to 500 | 501 to 999 | C=CC(=O)Nc1ccccc1Nc1ncc2c(n1)N(CC1CC1)C(=O)N(c1cc(OC)cc(OC)c1Cl)C2 [I-100] | –
< 100 | 101 to 500 | C=CC(=O)Nc1ccccc1Nc1ncc2c(n1)N(CC(F)F)C(=O)N(c1c(Cl)c(OC)cc(OC)c1Cl)C2 [I-103] | –
< 100 | 101 to 500 | C=CC(=O)Nc1ccccc1Nc1ncc2c(n1)N(CC(F)F)C(=O)N(c1cc(OC)cc(OC)c1Cl)C2 [I-104] | –
101 to 500 | 501 to 999 | C=CC(=O)Nc1ccccc1Nc1ncc2c(n1)N(CCF)C(=O)N(c1cc(OC)cc(OC)c1Cl)C2 [I-110] | –
< 100 | 101 to 500 | C=CC(=O)Nc1ccccc1Nc1ncc2c(n1)N(CC(F)F)C(=O)N(c1c(F)c(OC)cc(OC)c1F)C2 [I-116] | –
101 to 500 | 501 to 999 | C=CC(=O)Nc1ccccc1Nc1ncc2c(n1)N(Cc1cn[nH]c1)C(=O)N(c1cc(OC)cc(OC)c1)C2 [I-121] | –
< 100 | 101 to 500 | C=CC(=O)Nc1ccccc1Nc1ncc2c(n1)N(Cc1cn[nH]c1)C(=O)N(c1c(Cl)c(OC)cc(OC)c1Cl)C2 [I-124] | –
< 100 | – | C=CC(=O)Nc1ccccc1Nc1ncc2c(n1)N(Cc1csc(C)n1)C(=O)N(c1c(Cl)c(OC)cc(OC)c1Cl)C2 [I-134] | EC50 [1]: < 100 nM
